According to patent publication US7858663B1, “Physical and chemical properties of thyroid hormone organic acid addition salts” (Pisgah Laboratories, Inc., priority 2007, dated 2010):

Assays:
Type in all cases: physicochemical
[1] = Real-time storage stability under ambient laboratory conditions, HPLC comparison with freshly prepared material
Experimental: (§1) Chromatographic analyses were conducted on a Waters Breeze system equipped with a Waters 1525 Binary HPLC pump, 717plus Autosampler, 2487 Dual I Absorbance Detector and column heater employing a Zorbax Extend-C-18 Column (4.6×250 mm; 5 micron, 80 A). Separation occurred using a linear gradient elution according to the following table wherein eluant A consisted of 0.1% TFA in water and eluant B consisted of 0.1% TFA in acetonitrile.
(§2) Injection samples were prepared in water/1N NaOH/acetonitrile diluent (59:1:40) with analyte peaks detected at 230 nm. Analyte peaks associated with the pamoate salts were assayed against standard solutions prepared from liothyronine and levothryroxine.
The HPLC methodology was applied to freshly prepared samples of T3-pamoate and T4 pamoate and the resulting chromatograms compared with chromatograms of the materials after a four-year real-time storage under ambient laboratory conditions. Further, the pamoate salts were evaluated under forced degradation conditions to evaluate the effects of heat and moisture on the salts' chemical and thermal stability. Blank injections of the sample diluent were obtained at each time interval to determine if minor response differences observed were attributable to the diluent and the chromatographic system (eluant) or to real impurities within either liothyronine pamoate or levothyroxine pamoate. […]

[2] = Forced degradation as suspension in USP water at about 60° C., HPLC
Experimental: as §1, §2
The HPLC methodology was applied to freshly prepared samples of T3-pamoate and T4 pamoate and the resulting chromatograms compared with chromatograms of the materials after a four-year real-time storage under ambient laboratory conditions. Further, the pamoate salts were evaluated under forced degradation conditions to evaluate the effects of heat and moisture on the salts' chemical and thermal stability. Blank injections of the sample diluent were obtained at each time interval to determine if minor response differences observed were attributable to the diluent and the chromatographic system (eluant) or to real impurities within either liothyronine pamoate or levothyroxine pamoate.
To accelerate the potential degradation of levothyroxine pamoate and liothyronine pamoate, samples of each were individually placed in at least an 100 fold excess by weight USP water to form a suspension. The mixture was not degassed and heating was initiated to about 60° C. Multiple samples at each time point were obtained and analyzed from the mixture to assure a representative sample was obtained. FIG. 16 is an HPLC chromatogram of levothyroxine pamoate after subjection to this forced degradation condition for about 98 hours and is indicative of the unexpected stability associated with the organic acid addition salt. […]

[3] = Water solubility
[4] = Hygroscopicity; conditions: compared with sodium or alkali metal salts of the thyroid hormones

Compound | HPLC chromatogram after extended storage compared with freshly prepared material ([1]; about four years, ambient laboratory conditions 18-25° C., amber glass jars, detection 230 nm) | HPLC chromatogram after forced degradation compared with freshly prepared material ([2]; suspension in at least 100 fold excess USP water, not degassed, about 60° C., about 98 hours) | Water solubility [3] | Hygroscopicity [4] | Amount of degradation impurity at retention time 25-26 minutes ([1]; extended storage, about four years at ambient laboratory conditions) | Decomposition under forced degradation (late eluting peak, retention time about 25-26 minutes) ([2]; aqueous environment at 60° C. for 148 hours) | Amount of degradation impurity at retention time 25-26 minutes ([2]; forced degradation, aqueous environment at 60° C. for 148 hours)
levothyroxine pamoate | essentially identical | essentially identical | insoluble |  |  |  | 
N[C@@H](Cc1cc(I)c(Oc2cc(I)c(O)c(I)c2)c(I)c1)C(=O)O [levothyroxine sodium, reference compound] |  |  | water-soluble | sufficient hygroscopic characteristics |  |  | 
N[C@@H](Cc1cc(I)c(Oc2ccc(O)c(I)c2)c(I)c1)C(=O)O.N[C@@H](Cc1cc(I)c(Oc2ccc(O)c(I)c2)c(I)c1)C(=O)O.O=C(O)c1cc2ccccc2c(Cc2c(O)c(C(=O)O)cc3ccccc23)c1O [liothyronine pamoate] |  |  |  |  | only a minor amount of the impurity | exhibited some decomposition | significant
